According to ChEMBL document CHEMBL1275321, “Synthesis and antitumor activity of novel 6-aryl and 6-alkylpyrazolo[3,4-d]pyrimidin-4-one derivatives” (Eur J Med Chem, 2010):
In brackets after ≈: the same amount, converted by molar mass.

System: HCT-116
Assay: Cytotoxicity against human HCT116 cells after 48 hrs by sulforhodamine B assay
Assay type: functional, cell-based
Settings: HCT-116, 48 h

Row | Structure (SMILES) | IC50 [µg/mL]
1 | CSc1nn(-c2ccccc2)c2c1C(=O)NC(c1ccccc1)N2 (configuration not stated) | 2.4 (≈ 7.13 µM)
2 | CSc1nn(-c2ccccc2)c2nc(-c3cccc([N+](=O)[O-])c3)[nH]c(=O)c12 | 0.67 (≈ 1.77 µM)
3 | COc1ccc(NCc2nc3c(c(SC)nn3-c3ccccc3)c(=O)[nH]2)cc1 | 2.7 (≈ 6.86 µM)
4 | CSc1nn(-c2ccccc2)c2nc(CNc3ccc(S(N)(=O)=O)cc3)[nH]c(=O)c12 | 3.09 (≈ 6.98 µM)
5 | CSc1nn(-c2ccccc2)c2nc(CCNC3CCCCC3)[nH]c(=O)c12 | 0.47 (≈ 1.23 µM)
6 | CSc1nn(-c2ccccc2)c2nc(CCNc3ccccc3)[nH]c(=O)c12 | 1.34 (≈ 3.55 µM)
7 | CSc1nn(-c2ccccc2)c2nc(CCNc3ccc(S(N)(=O)=O)cc3)[nH]c(=O)c12 | 2.82 (≈ 6.18 µM)
